Here are results for six molecules from patent US20100196586A1, “FOODSTUFF COMPOSITION TO IMPROVE DIGESTIBILITY OF FOODSTUFF LIPIDS” (ISL-INNOVATION SANTE LIPIDES, priority 2007, published 2010).

Experiment [1] concerns gastric lipase. Kind of experiment: Gastric lipolysis of triolein emulsions stabilized by phospholipids, with purified gastric lipases or gastric juices. Format: biochemical, human. From the text:
(§1) The compounds have been tested in vitro in different experimental conditions for their ability to promote the action of three major lipolytic enzymes of the digestive tract, i.e., gastric lipase, colipase-dependent pancreatic lipase, bile salt stimulated lipase (BSSL), and their isoforms and variants.
(§2) Different lipidic emulsions have been prepared by sonication of a mixture of triolein (TO) (98.7%), cholesterol (0.5%) and phospholipids (0.8%).
(§3) The lipolysis tests have been carried out in vitro in conditions that mimic the physiology of the human digestive tract, either healthy or with pancreatic insufficiency (PI).
Gastric lipolysis in the presence of gastric lipase has been carried out with purified lipases or gastric juices from different subjects at pH 5.40, at 37° C. for 60 minutes with a gastric lipase (U/mL)/lipids (micromoles of TO) ratio of 2.
(§4) Lipolysis by the three main digestive tract lipases has also been tested in more complex conditions, i.e. in the presence of lipidic emulsions with a mixture of proteins plus lactose added in proportions that are found in normal or medically assisted nutrition.

Experiment [2] has as its system bile salt stimulated lipase (BSSL). Kind of experiment: Intestinal lipolysis of triolein emulsions by bile salt stimulated lipase. Format: biochemical, human.
Source text: as §1, §2, §3
[…] Several variants of BSSL have been tested, numbered 1 to 8.
as §4

The target in experiment [3] is T1, colipase dependent pancreatic lipase (Sus scrofa, UniProt P00591).
T1 sequence (P00591 1-450): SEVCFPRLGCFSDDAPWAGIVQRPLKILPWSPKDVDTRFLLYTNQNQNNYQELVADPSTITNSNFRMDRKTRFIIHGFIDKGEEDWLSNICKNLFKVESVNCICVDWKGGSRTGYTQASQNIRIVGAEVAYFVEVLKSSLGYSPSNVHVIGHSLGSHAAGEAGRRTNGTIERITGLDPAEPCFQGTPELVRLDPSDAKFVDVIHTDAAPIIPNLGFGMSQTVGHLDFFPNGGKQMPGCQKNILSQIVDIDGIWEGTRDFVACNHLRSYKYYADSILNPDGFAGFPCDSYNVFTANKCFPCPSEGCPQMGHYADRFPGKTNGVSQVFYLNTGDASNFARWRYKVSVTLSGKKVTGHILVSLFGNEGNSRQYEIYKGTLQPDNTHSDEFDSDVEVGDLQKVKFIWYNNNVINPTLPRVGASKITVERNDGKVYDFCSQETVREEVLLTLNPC
T1 sequence (P02703 23-112 partner): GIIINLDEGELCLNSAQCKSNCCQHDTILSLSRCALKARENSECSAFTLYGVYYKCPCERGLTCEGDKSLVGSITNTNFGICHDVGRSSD
Kind of experiment: Intestinal lipolysis of triolein emulsions by colipase dependent pancreatic lipase or pancreatine. Format: biochemical, pig. Conditions: for yield of pancreatic lipolysis (percentage of hydrolysis) compared with PC P/O emulsion: normal physiological conditions, two forms of pig pancreatic lipase (pure lipase or powder of pancreas), FIG. 3.
Source text: as §1, §2, §3
Intestinal lipolysis in the presence of colipase dependent pancreatic lipase (lipase/colipase 1/1 molar ratio) or of pig pancreatic extract (pancreatine) was conducted at pH […] at 37° C. for 15 minutes, with a pancreatic lipase (U/mL)/micromoles of TO ratio of 20, and in the presence of pig bile in sufficient quantity for a bile salt concentration of 2 or 8 mM.
as §4

The conditions of experiment [4]: cited from earlier work.
Where [5] appears, read: gastric juices of different subjects, irrespective of the origin of gastric juice, FIG. 2.
Setting [6] is: gastric juices of subject, pH 5.40, 37° C., 60 minutes, FIG. 1.
[7] abbreviates: conditions of pancreatic insufficiency, mixture of pure bile salts, FIG. 6.

On to “egg-derived lysophosphatidylcholine [LPCO]”, for which the “yield of gastric lipolysis (percentage of hydrolysis) compared with the control CT emulsion” value in experiment [1] (setting [5]) and in experiment [1] (setting [6]) was “significantly higher” each time. Besides, the “yield of lipolysis by BSSL (percentage of hydrolysis) compared with PC P/O emulsion” value in experiment [2] (setting [7]) is “significantly higher”; in experiment [2] (normal conditions, FIG. 4), “significantly higher”.

Regarding lysophosphatidylinositol [LPI], the “yield of pancreatic lipolysis (percentage of hydrolysis) compared with PC P/O” value in experiment [3] (conditions of pancreatic insufficiency, purified lipase, intestinal pH values typical of pancreatic insufficiency, FIG. 5) is on record as “significantly higher”. The “yield of pancreatic lipolysis (percentage of hydrolysis) compared with PC P/O emulsion” value in experiment [3] is “significantly higher”. The “activator effect in the presence of a mixture of protein plus lactose” value in experiment [3] (pancreatic lipase, complex environment compared with simple emulsion) was “identical or even maximized”; in experiment [1] (gastric lipase, complex environment compared with simple emulsion), “identical or even maximized”; in experiment [2] (BSSL, complex environment compared with simple emulsion), “identical or even maximized”. For the same molecule, in experiment [1] (LPI 0.1, 0.4 and 0.8% of total lipids, total phospholipids 0.8% of total lipids, gastric juices of subjects, FIG. 12), the “effect of the dose of LPI on the yield of gastric lipolysis of the LHO emulsion” value is given as “increase with increasing concentrations of LPI”. For the same molecule, the “yield of gastric lipolysis (percentage of hydrolysis) compared with PC P/O and complex PC P/O” value in experiment [1] (different human gastric juices, simple emulsions and complex emulsions (lactose and milk proteins), FIG. 7) was “significantly higher”. In addition, the “yield of gastric lipolysis (percentage of hydrolysis) compared with the control CT emulsion” value in experiment [1] (setting [5]) and in experiment [1] (setting [6]) was “significantly higher” in each case. Also, the “quantity at which the activator effect seems optimal” value in experiment [1] (gastric lipolysis of LHO/LPI emulsions, dose dependent) is 0.8 % of total lipids. In experiment [1] (purified gastric lipases or juices of different subjects with different degrees of N-terminal degradation, FIG. 10), the “effect on gastric lipase degraded at its N-terminal end (yield of gastric lipolysis vs CT and/or PC P/O)” value was “reactivates degraded gastric lipase”. Besides, the “yield of lipolysis by BSSL (percentage of hydrolysis) compared with PC P/O emulsion” value in experiment [2] (setting [7]) is “significantly higher”; in experiment [2] (normal conditions, FIG. 4), “significantly higher”. Further, the “activator effect on different variants of BSSL (1 to 8) compared with PC P/O” value in experiment [2] (normal conditions (A) or conditions of pancreatic insufficiency (B), efficacy varies with type of BSSL, FIG. 11) is “confirmed”. Further, the “yield of lipolysis by BSSL (percentage of hydrolysis) compared with PC P/O and complex PC P/O” value in experiment [2] (purified human BSSL, pH 7.00, bile salts 8 mM (normal) or 2 mM (pancreatic insufficiency), with or without lactose and milk proteins, FIG. 9) is reported as “significantly higher”.

With DHA phosphatidylethanolamine [PE DHA], the “yield of lipolysis by BSSL (percentage of hydrolysis) compared with PC P/O emulsion” value is “significantly higher” in experiment [2] (setting [7]) and “significantly higher” in experiment [2] (normal conditions, FIG. 4).

Consider lysophosphatidylserine [LPS], for which the “yield of pancreatic lipolysis (percentage of hydrolysis) compared with PC P/O emulsion” value in experiment [3] is “significantly higher”.

In the case of `CCCCCCCC/C=C\CCCCCCCC(=O)OC[C@@H](O)COP(=O)(O)O` [LPAo, oleyl lysophosphatidic acid], the “yield of gastric lipolysis (percentage of hydrolysis) compared with the control CT emulsion” value in experiment [1] (setting [6]) was “significantly higher”.

B1: recombinant gastric lipase: recombinant dog gastric lipase (Merispase, Meristem) (protein, UniProt P80035 20-398, looked up)
Gastric triacylglycerol lipase: LFGKLHPTNPEVTMNISQMITYWGYPAEEYEVVTEDGYILGIDRIPYGRKNSENIGRRPVAFLQHGLLASATNWISNLPNNSLAFILADAGYDVWLGNSRGNTWARRNLYYSPDSVEFWAFSFDEMAKYDLPATIDFILKKTGQDKLHYVGHSQGTTIGFIAFSTNPKLAKRIKTFYALAPVATVKYTETLLNKLMLVPSFLFKLIFGNKIFYPHHFFDQFLATEVCSRETVDLLCSNALFIICGFDTMNLNMSRLDVYLSHNPAGTSVQNVLHWSQAVKSGKFQAFDWGSPVQNMMHYHQSMPPYYNLTDMHVPIAVWNGGNDLLADPHDVDLLLSKLPNLIYHRKIPPYNHLDFIWAMDAPQAVYNEIVSMMGTDNK
Regarding B1, the “increase of the absorption level of lipids” value in experiment [4] (administered together with pancreatic extracts, in 7 of the 11 patients studied) is 17%. The “rate of absorption of lipids” value in experiment [4] (subjects suffering from cystic fibrosis, alone, 600 mg/day, 28% without supplement) is recorded as 50%.
